# Measurements from ChEMBL document CHEMBL3046187, “Challenges in docking 2-hydroxy and 2,4-dihydroxychalcones into the binding site of ALR2” (Med Chem Res, 2013).
# Molecular target: Aldo-keto reductase family 1 member B1 (Homo sapiens, UniProt P15121)
# Assay: Inhibition of Homo sapiens (human) aldose reductase
row,IC50 [nM],SMILES
1,374,CC1=C(CC(=O)O)c2cc(F)ccc2/C1=C\c1ccc([S+](C)[O-])cc1 (stereo not given) [SULINDAC]
2,2390,Cc1ccc(C(=O)c2ccc(CC(=O)O)n2C)cc1 [TOLMETIN]

# Molecular target: Aldo-keto reductase family 1 member B1 (Rattus norvegicus, UniProt P07943)
# Assay: Inhibition of Rattus norvegicus (rat) lens aldose reductase
row,SMILES,IC50 [nM]
1,O=C(/C=C/c1ccc(O)cc1)c1ccccc1O,4250
2,O=C(/C=C/c1ccccc1)c1cc(Cl)ccc1O,11500
3,COc1ccc(/C=C/C(=O)c2cc(Cl)ccc2O)cc1,14800
4,O=C(/C=C/c1ccc(Cl)cc1)c1cc(Cl)ccc1O,13700
5,O=C(/C=C/c1ccccc1O)c1cc(Cl)ccc1O,1250
6,O=C(/C=C/c1cccc(O)c1)c1cc(Cl)ccc1O,10500
7,Cc1cccc(/C=C/C(=O)c2cc(Cl)ccc2O)c1,10200
8,Cc1ccc(/C=C/C(=O)c2cc(Cl)ccc2O)cc1,9800
9,Cc1ccc(/C=C/C(=O)c2cc(Cl)ccc2O)c(C)c1,7800
10,COc1ccc(/C=C/C(=O)c2cc(Cl)ccc2O)cc1F,10900
11,COc1ccc(/C=C/C(=O)c2cc(Cl)ccc2O)cc1OC,11800
12,COc1ccc(/C=C/C(=O)c2cc(Cl)ccc2O)c(OC)c1OC,8200
13,O=C(/C=C/c1ccc(O)c(O)c1O)c1cc(Cl)ccc1O,2230
14,O=C(/C=C/c1ccc(O)cc1)c1cc(O)ccc1O,5390
15,COc1ccc(O)c(C(=O)/C=C/c2ccc(O)cc2)c1,3180
16,COc1cccc(O)c1C(=O)/C=C/c1ccc(O)cc1,3270
17,Cc1ccc(O)c(C(=O)/C=C/c2ccc(O)cc2)c1,4380
18,O=C(/C=C/c1ccc(O)cc1)c1cc(Br)ccc1O,2150
19,O=C(/C=C/c1ccc([N+](=O)[O-])cc1)c1ccc(O)cc1O,3210
20,COc1ccc(C(=O)/C=C/c2ccc(O)cc2)c(O)c1,5240

# Further lines, results first:
row,IC50 [nM],SMILES
1,1210,O=C(/C=C/c1ccc(Cl)c(Cl)c1)c1ccc(O)cc1O
2,1150,CN(C)c1ccc(/C=C/C(=O)c2ccc(O)cc2O)cc1
3,1120,O=C(/C=C/c1ccc(Br)cc1)c1ccc(O)cc1O
4,1050,COc1ccc(/C=C/C(=O)c2ccc(O)cc2O)cc1OC
5,1010,O=C(/C=C/c1ccc(O)cc1)c1cc(Cl)ccc1O
6,1010,"O=C(/C=C/c1ccccc1)c1ccc(O)cc1O [2',4'-DIHYDROXYCHALCONE]"
7,930,COc1ccc(/C=C/C(=O)c2ccc(O)cc2O)cc1
8,910,COc1ccc(/C=C/C(=O)c2ccc(O)cc2O)cc1F
9,850,O=C(/C=C/c1ccc(O)cc1O)c1cc(Cl)ccc1O
10,810,Cc1ccc(/C=C/C(=O)c2ccc(O)cc2O)cc1
11,750,O=C(/C=C/c1ccc(O)c(O)c1O)c1ccc(O)cc1O
12,580,O=C(/C=C/c1cc(O)ccc1O)c1ccc(O)cc1O
13,550,O=C(/C=C/c1ccc(O)c(O)c1)c1cc(Cl)ccc1O
14,450,O=C(/C=C/c1ccc(O)c(O)c1)c1ccc(O)cc1O [BUTEIN]
15,400,Cc1ccc(/C=C/C(=O)c2ccc(O)cc2O)c(C)c1
16,400,O=C(/C=C/c1ccc(O)cc1)c1ccc(O)cc1O [ISOLIQUIRITIGENIN]
17,380,O=C(/C=C/c1ccccc1O)c1ccc(O)cc1O
18,160,O=C(/C=C/c1ccc(O)cc1O)c1ccc(O)cc1O
